The conditions of data set [1]: clinical use; cited from earlier work.
The test system of a further data set is lymph nodes. Nature of the data set: Primate lymphatic MRI study (DCE MRI after subcutaneous injection). Type of data set: in vivo, M. Nemestrina. To be noted: animals injected subcutaneously. The method, then:
In vivo imaging of the lymph nodes using Gd-DTPA-lipid nanoparticles for dynamic contrast enhanced (DCE) MRI was performed in a 1.5T MR scanner. The pigtailed macaque (M. Nemestrina) was anesthetized with inhaled isofluorane (1-2%) and closely monitored during the experiments. A pre-contrast image of the primate was recorded to determine proper lymph node location and fine-tune the imaging parameters. The animal was removed from the MR scanner and injected subcutaneously at four sites. […] The total dose of Gd is estimated to be 24.4 μmol/kg for the primate studies.

The next data set deals with vasculature. Kind of data set: Rat vascular MRI study (DCE MRI after intravenous injection). Type of data set: in vivo. The conditions noted are these: 0.01 mmol/kg nanoparticles or 0.05 mmol/kg OMNISCAN, 5 min and 14-15 min. As for the experimental part: In vivo imaging of the rat using Gd-DTPA-lipid nanoparticles for dynamic contrast enhanced (DCE) MRI was performed in a 3.0T MR scanner. The rats (SD) was anesthetized with inhaled isofluorane (1-2%) and closely monitored during the experiments. A pre-contrast image of the rat was recorded to determine proper location, orientation and fine-tune the imaging parameters. The animal was removed from the MR scanner and injected with […] of indicated Gd contrast media through femoral vein. The images were recorded on a Signa […] Scanner using a surface coil 12×12 inch.

“Also recorded” adds a separate entry of the source. Where only a bound is given, the exact number is not on record here.

In the case of `CNC(=O)CN(CCN(CCN(CC(=O)[O-])CC(=O)NC)CC(=O)[O-])CC(=O)[O-].[Gd+3]` [OMNISCAN, Gd-DTPA-BMA], in data set [1], the Clearance time entry is on record as “cleared within a few minutes”. Moreover, in the data set with lymph nodes, the “Time within which signal in lymphatic system dissipates” value was at most 20 min. The “Localization of contrast enhancement” value in the data set with vasculature is “diffused throughout and does not localize in the vasculature, well-perfused tissues, or the lymph nodes; also recorded: diffuse contrast localization with no vascular definition”.
